Laboratory results reported in ChEMBL document CHEMBL1806354 (J Med Chem, 2011).
Active and inactive are the calls of the source. The calls are words filed in the database; no cut-off is given here.

Assays:
[1] = biological target: T1, Alpha-1A adrenergic receptor (Homo sapiens, UniProt P35348); test: Antagonist activity at adrenergic alpha1A receptor expressed in CHO cells assessed as inhibition of adrenaline-induced intracellular calcium level after 3 to 5 mins by Fluo-4/AM assay; format: functional, cell-based
T1 sequence (P35348 whole entry): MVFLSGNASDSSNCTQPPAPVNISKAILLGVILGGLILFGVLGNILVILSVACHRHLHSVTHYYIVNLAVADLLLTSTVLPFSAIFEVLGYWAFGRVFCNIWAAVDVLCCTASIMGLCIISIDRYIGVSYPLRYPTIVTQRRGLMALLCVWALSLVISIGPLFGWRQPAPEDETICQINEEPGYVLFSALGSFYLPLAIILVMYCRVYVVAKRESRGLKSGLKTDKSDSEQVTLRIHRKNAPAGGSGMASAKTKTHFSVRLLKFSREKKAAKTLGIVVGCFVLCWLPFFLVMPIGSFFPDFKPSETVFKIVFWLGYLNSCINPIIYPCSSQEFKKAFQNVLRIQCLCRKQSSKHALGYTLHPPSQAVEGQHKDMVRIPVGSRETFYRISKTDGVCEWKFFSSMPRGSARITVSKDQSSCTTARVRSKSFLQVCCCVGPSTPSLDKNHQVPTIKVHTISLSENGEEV

[2] = system: Rattus norvegicus; test: Antiparkinsonian effect in 21 days L-DOPA treated Parkinson's disease rat model assessed as reduction in L-DOPA-induced dyskinesia at 0.5 to 1.5 mg/kg, ip administered 15 mins before L-DOPA challenge on day 23; format: functional, organism-based
[3] = biological target: D(2) dopamine receptor (Homo sapiens, UniProt P14416); test: Displacement of [3H]spiperone from dopamine D2 receptor expressed in HEK293 cells after 50 mins by beta liquid scintillation counter; format: cell-based
[4] = biological target: T2, 5-hydroxytryptamine receptor 1A (Homo sapiens, UniProt P08908); test: Displacement of [3H]-8-OH-DPAT from 5-HT1A receptor expressed in CHO cells after 50 mins by beta liquid scintillation counter; format: cell-based
T2 sequence (P08908 whole entry): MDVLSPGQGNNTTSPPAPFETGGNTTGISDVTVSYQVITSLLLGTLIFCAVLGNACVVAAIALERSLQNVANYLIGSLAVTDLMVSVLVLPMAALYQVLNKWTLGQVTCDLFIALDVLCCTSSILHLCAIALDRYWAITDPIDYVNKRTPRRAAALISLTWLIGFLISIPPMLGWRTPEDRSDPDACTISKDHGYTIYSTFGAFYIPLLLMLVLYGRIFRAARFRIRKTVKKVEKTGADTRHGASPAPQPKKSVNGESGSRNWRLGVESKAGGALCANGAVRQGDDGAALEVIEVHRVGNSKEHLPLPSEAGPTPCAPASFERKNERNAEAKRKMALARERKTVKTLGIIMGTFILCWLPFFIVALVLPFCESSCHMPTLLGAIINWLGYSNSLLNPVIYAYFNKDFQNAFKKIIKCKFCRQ

[5] = system: Rattus norvegicus; test: Antiparkinsonian effect in Parkinson's disease rat model assessed as effect on contralateral rotations measured per 5 mins at 0.5 to 1.5 mg/kg, ip qd for 21 days; format: functional, organism-based
[6] = biological target: T3, Alpha-1D adrenergic receptor (Homo sapiens, UniProt P25100); test: Antagonist activity at adrenergic Alpha-1D receptor expressed in HEK293 cells co-transfected with Galpha16 assessed as inhibition of adrenaline-induced intracellular calcium after 3 to 5 mins by Fluo-4/AM assay; format: functional, cell-based
T3 sequence (P25100 whole entry): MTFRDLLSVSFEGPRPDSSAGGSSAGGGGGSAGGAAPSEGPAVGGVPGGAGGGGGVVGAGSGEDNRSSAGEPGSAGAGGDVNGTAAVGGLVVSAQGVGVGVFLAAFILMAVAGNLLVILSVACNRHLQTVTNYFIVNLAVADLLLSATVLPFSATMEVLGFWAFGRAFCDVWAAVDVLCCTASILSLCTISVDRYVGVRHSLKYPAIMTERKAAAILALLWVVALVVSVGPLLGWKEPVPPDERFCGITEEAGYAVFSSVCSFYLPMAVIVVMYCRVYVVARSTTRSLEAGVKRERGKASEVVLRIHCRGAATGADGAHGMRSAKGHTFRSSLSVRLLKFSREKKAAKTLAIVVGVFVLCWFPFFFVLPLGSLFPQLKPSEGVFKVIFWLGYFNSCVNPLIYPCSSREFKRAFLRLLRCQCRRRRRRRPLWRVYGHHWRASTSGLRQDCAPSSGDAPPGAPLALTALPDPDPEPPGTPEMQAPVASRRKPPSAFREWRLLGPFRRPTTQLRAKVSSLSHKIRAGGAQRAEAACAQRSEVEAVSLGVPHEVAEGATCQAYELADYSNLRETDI

[7] = biological target: D(1A) dopamine receptor (Homo sapiens, UniProt P21728); test: Displacement of [3H]SCH23390 from dopamine D1 receptor expressed in HEK293 cells at 10 uM after 50 mins by beta liquid scintillation counter; format: cell-based
Sequence of D(1A) dopamine receptor (P21728 whole entry): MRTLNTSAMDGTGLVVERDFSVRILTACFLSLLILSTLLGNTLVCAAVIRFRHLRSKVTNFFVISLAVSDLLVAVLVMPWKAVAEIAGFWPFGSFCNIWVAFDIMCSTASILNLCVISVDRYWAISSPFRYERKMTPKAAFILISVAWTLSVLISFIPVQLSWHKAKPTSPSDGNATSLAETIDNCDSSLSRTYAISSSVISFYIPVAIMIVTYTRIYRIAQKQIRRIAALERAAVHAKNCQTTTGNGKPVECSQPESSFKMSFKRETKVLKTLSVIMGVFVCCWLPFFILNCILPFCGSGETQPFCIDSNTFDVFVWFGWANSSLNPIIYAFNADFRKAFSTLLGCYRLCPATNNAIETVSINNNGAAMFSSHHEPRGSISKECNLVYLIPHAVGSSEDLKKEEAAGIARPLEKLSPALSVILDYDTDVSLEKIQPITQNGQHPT

Sequence of D(2) dopamine receptor (P14416 whole entry): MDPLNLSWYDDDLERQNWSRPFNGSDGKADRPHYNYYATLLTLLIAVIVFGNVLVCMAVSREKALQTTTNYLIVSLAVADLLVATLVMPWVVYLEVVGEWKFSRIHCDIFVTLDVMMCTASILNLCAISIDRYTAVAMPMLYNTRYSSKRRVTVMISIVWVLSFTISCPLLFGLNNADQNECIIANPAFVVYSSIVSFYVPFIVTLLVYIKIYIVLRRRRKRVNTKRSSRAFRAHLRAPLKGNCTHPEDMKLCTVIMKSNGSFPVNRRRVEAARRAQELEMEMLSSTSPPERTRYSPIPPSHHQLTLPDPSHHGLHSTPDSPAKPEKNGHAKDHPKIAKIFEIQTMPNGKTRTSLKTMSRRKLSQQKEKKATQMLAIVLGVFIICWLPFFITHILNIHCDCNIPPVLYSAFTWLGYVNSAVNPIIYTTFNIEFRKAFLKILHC

In the case of `CCCN1CCc2cccc3c2[C@H]1Cc1cccc(OC(=O)CCCCC2CCSS2)c1-3` (some centres not stated), the IC50 [1] is reported as over 10000 nM, the Activity [2] is reported as “inactive” and the Ki [3] is reported as 174 nM. For the same molecule, the Ki [4] was 66 nM, the Activity [5] was “Active” and the IC50 [6] was over 10000 nM. It also gave an inhibition [7] of 55.7%.
